Results taken from patent US20130209439A1, “INHIBITORS OF PDE4 BINDING TO HSP20” (THE UNIVERSITY COURT OF THE UNIVERSITY OF GLASGOW, priority 2010, published 2013).

Tests used:
[1] = test system: Phospho-Ser16 HSP20 in HEKB2 cells; assay: Ser16 phosphorylation of HSP20 in HEKB2 cells overexpressing HSP20 (Western blot); type: cell-based; conditions: HEKB2 cells transfected with wt HSP20, isoprenaline 1 μM, indicated times
Description: FIG. 1. The phosphorylation of HSP20 at Ser16 is modulated by PDE4 activity in HEKB2 cells. A, HEKB2 cells overexpressing HSP20 or HSP20 ser16-Ala mutant were treated with isoprenaline for indicated times. Cellular lysates were blotted for HSP20 and Phospho-Ser16 HSP20. B, HEKB2 cells overexpressing HSP20 were treated with isoprenaline for indicated times, Cellular lysates were blotted for HSP20 and Phospho-Ser16 HSP20. C, HEKB2 cells overexpressing HSP20 were treated with isoprenaline for indicated times following pre-treatment with the PDE4-specific inhibitor, rolipram. Cellular lysates were blotted for HSP20 and Phospho-Ser16 HSP20. D, Quantifications of data from FIGS. 1B and 1C (n=4). * Denotes significance at a level p<0.05 E, Lysate from untransfected HEKB2 cells was blotted for HSP20 and Phospho-Ser16 HSP20.
(§1) HEK293B2 cells are a stable cell line overexpressing the GFP-tagged β2AR were cultured as previously described^48. HEK293B2 cells were transiently transfected with wild type HSP20 or a phosphorylation defective HSP20 (S16A) or a phosphorylation mimic HSP20 (S16D). Neonatal cardiac myocytes were prepared and cultured as previously described^30. Cell lysis, immunopurification and western blotting was done as described before by us in some detail^48. Briefly, HEK 293 cells were transiently transfected with wild-type HSP20 by using Polyfect Transfection Reagent (Qiagen). Transfected HEK 293 cells were treated with 10 μM bs906 or 10 μM control peptide for 0, 15, 30, 60 and 120 min. Control and treated transfected HEK 293 cells were then washed thrice with ice cold PBS (phosphate buffered saline) before cellular lysates were prepared. Cellular lysates were prepared in lysis buffer containing 25 mM Hepes, pH 7.5, 2.5 mM EDTA, 50 mM NaCl, 50 mM NaF, […], 10% (v/v) glycerol, 1% (v/v) Triton X-100 and Complete™ EDTA-free protease inhibitor cocktail tablets (Roche). Protein concentration of lysates were determined using the Bradford assay and all samples were equalised for protein concentration. Proteins were separated by SOS/PAGE (4-12% Bis-Tris gels) and transferred onto nitrocellulose membranes for Western blotting. Antibodies were used to detect phospho-proteins and native proteins in lysates from control and treated cells
In contrast to this, when we transfected these cells with a phospho-null mutant form, Ser16Ala-Hsp20, then no such change was observed (FIG. 1A). In order to evaluate whether PDE4 activity played a role in regulating this phosphorylation process in Hsp20-transfected HEKB2 cells, cells that had either been pre-treated or not with the PDE4 selective inhibitor rolipram were subsequently challenged with isoprenaline (1 μM) (FIGS. 1B and C). […] Endogenous levels of phospho-HSP20 or HSP20 were not detectable in HEKB2 cells (FIG. 1E).

[2] = test system: Phospho-Ser16 HSP20 in neonatal cardiac myocytes; assay: Ser16 phosphorylation of endogenous HSP20 in neonatal cardiac myocytes (Western blot); type: cell-based, rat; conditions: neonatal cardiomyocytes, isoprenaline challenge
Description: FIG. 2. The phosphorylation of HSP20 at Ser16 is modulated by PDE4 activity in cardiac myocytes. A, Neonatal cardiac myocytes were treated with isoprenaline for indicated times with or without pre-treatment with the PDE4-specific inhibitor, rolipram. Cellular lysates were blotted for HSP20 and Phospho-Ser16 HSP20. B, Quantifications of data from FIG. 2A (n=3). * Denotes significance at a level p<0.05 over iso treatment.
as §1
To determine whether inhibition of PDE4 activity had similar effects on endogenous phospho-HSP20 levels in heart cells, similar experiments were undertaken using neonatal cardiomyocytes (FIG. 2).

PDE4 = PDE4 activity associated with HSP20 immunoprecipitates from cardiac myocytes; type: cell-based, rat; conditions: isoprenaline 1 μM
Description: FIG. 3. HSP20 forms a complex with members of the PDE4 family of phosphodiesterases. A (upper panel), Immunopurification (Ips) of HSP20 from cellular lysates isolated from myocytes following treatment with Isoprenaline (1 μM) were blotted for the presence of PDE4D isoforms. B, (lower panel) The PDE4 activity associated with HSP20 Ips was determined. C, Members of the PDE4D sub-family of PDE4s were co-expressed with HSP20 in HEKB2 cells. HSP20 Ips were probed for PDE4D isoforms.
PDE activity was measured using a radioactive cAMP hydrolysis assay that has been described previously^56. [8-^3H]adenosine cyclic-3,5′-mono-phosphate was sourced from Amersham Biosciences (Little Chalfont, U.K.) and cyclic-3′,5′-mono-phosphate from Sigma.
Immunopurification (Ips) of HSP20 from cardiac myocytes were screened for associating PDE4 by Western blotting analysis and cAMP PDE assay (FIG. 3A).

[3] = test system: neonatal cardiac myocytes; assay: Cardiac myocyte cell size, manual cross-sectional area; type: cell-based, rat; conditions: 24 hour isoprenaline 10 μM, 30 min pre-treatment with 10 μM peptide
Description: (§2) FIG. 7. Peptide disruption of the PDE4D-HSP20 complex attenuates the hypertrophic response triggered by constant […]-agonist treatment. A, Upper panel. The area covered by isolated cardiac myocytes was used as a measure of cell size. Lower panel, Graphical depiction of the mean areas (N=100) of cells following 24 hours of indicated treatments. B, impedance measurements were used to calculate continuous normalised cell index using exCELLigence technology Normalised mean (n=4) cell index after 24 hours of indicated treatments.
Cardiomyocytes were plated out on gelatin (Sigma) pre-coated 6-well plates and placed in an incubator at 37° C. and an atmosphere of 5% CO2. After 24 h the cardiomyocytes were cultured in a serum-free condition for 48 h before experiments. The cardiomyocytes were then challenged for 24 h with either 10 μM isoprenaline alone or isoprenaline following a 30 min pre-treatment with 10 μM rolipram, 10 μM bs906 or 10 μM control peptide. Thereafter, cell size was determined on phase-contrast microscope. […] from randomly selected microscope images (400×) were captured digitally and analysed. Cross-sectional area was determined by the following formula: cross-sectional area=(radius)^2×π. Values are expressed as means±SE of five separate culture preparations. A f-test was performed to compare the two groups, and the P values are indicated.

[4] = test system: neonatal cardiac myocytes; assay: Cardiac myocyte size by xCELLigence impedance (normalised cell index); type: cell-based, rat; conditions: 24 hour isoprenaline 10 μM, 30 min pre-treatment with 10 μM peptide
Description: as §2
The E-Plate 96 (Roche) was used for these experiments^45. This comprises a 96-well plate with integral sensor electrode arrays to measure cell impedance. […] E-plate 96 is a 96-well microtiter plate with incorporated gold cell sensor arrays in the bottom, which allows impedance inside each well to be monitored and assayed in real time. […] The impedance measured between electrodes in an individual well depends on electrode geometry, ion concentration in the well and whether or not cells are attached to the electrodes^45. In the absence of cells, electrode impedance is mainly determined by the ion environment both at the electrode/solution interface and in the bulk solution. […] Small changes in impedance can also be recorded when cells temporally change shape or size in response to agonists^46,57. […]

## CC(C)NCC(O)c1ccc(O)c(O)c1 (centres unmarked) [isoprenaline]
[1]
  phosphorylation of Hsp20 at Ser16: time dependent phosphorylation of Hsp20 at Ser16
[2]
  endogenous phospho-HSP20 levels: induced an increase in endogenous phospho-HSP20 levels
PDE4
  increase in PDE4 activity associated with HSP20 immunoprecipitates vs untreated lysates: 2.5 fold
[3]
  cell size (cross-sectional area) of cardiac myocytes: marked increase in cell size
[4]
  cell size (normalised cell index, impedance) of cardiac myocytes: marked increase in cell size
